US20260133203A1, “DETECTION OF FUMARATE-DERIVED MODIFICATION IN A TEST SAMPLE” (UNIVERSITY OF SOUTH CAROLINA, priority 2017, published 2026)
Counter-ions that a name gives are not always drawn.

Test system: primary rat neurons
Experiment: LC-MS/MS identification of succinated proteins in primary rat neurons
Format: cell-based
Conditions: DMF-treated primary rat neurons, modified by DMF or MMF
Experimental: Primary neurons from newborn rat brain cortices were isolated and cultured using an adaptation of methods described previously. Briefly, postnatal day 1 rats were sacrificed by decapitation, the brains were aseptically dissected, and cortices were separated from the rest of the brain in ice-cold Hibernate®-A medium (Life Technologies) containing 2% (v/v) B-27 supplement (Life Technologies) and 0.5 mM glutamine (InvitrogenTM). The tissue was minced in fragments of about 1 mm3 with a scalpel and subjected to digestion with 2 mg/ml papain (Worthington) in the supplemented Hibernate®-A medium for 20 minutes at 30° C. in a shaker incubator set at 100 rpm. […] After a centrifugation at 500 g for 5 min at room temperature, cells were resuspended in NeurobasalTM-A medium containing 0.5 mM glutamine, 2% B-27 supplement, and 5 ng/ml bFGF (InvitrogenTM); counted and plated on 24-well plates pretreated with 0.01% poly-L-lysine (Sigma-AldrichTM) at a density of 200,000 cells/well. […] The protein content in the different samples was determined by the Lowry assay. […] After gel extraction, the peptides were re-suspended in 1% acetic acid and analyzed on a DionexTM […] system (Thermo ScientificTM, Rockford, IL) coupled to an Orbitrap Velos ProTM mass spectrometer (Thermo ScientificTM, Rockford, IL). […]

## COC(=O)/C=C/C(=O)OC [DMF, dimethyl fumarate]
  number of succinated proteins confirmed: 4
